Measured values: PubChem BioAssay AID328 (DTP/NCI, 2004)
Toxic doses and inconclusive results are not listed. The calls were made as follows: active = survival T/C of 150% or more; inactive = T/C below 125% in these data.

Test system: BDF1 mice, P388 leukemia ip, median survival T/C
Experiment: NCI In Vivo Anticancer Drug Screen. Data for tumor model P388 Leukemia (intraperitoneal) in B6D2F1 (BDF1) mice
Details: endpoint: median survival time, higher = longer survival
Protocol: The antitumor activity of compounds was measured in mice bearing transplantable tumors. Survival or tumor size were measured and the results are expressed as the measurement made in the treated group (T) divided by the measurement made in the vehicle treated control group (C). The tumor model used in this assay is P388 Leukemia (intraperitoneal) in B6D2F1 (BDF1) mice

[1] = dose: 100.0 mg/kg/injection, schedule: Q01DX009 (ip), vehicle: saline with Tween-80
[2] = dose: 200.0 mg/kg/injection, schedule: Q01DX009 (ip), vehicle: saline with Tween-80
[3] = dose: 12.5 mg/kg/injection, schedule: Q01DX009 (ip), vehicle: saline with Tween-80
[4] = dose: 25.0 mg/kg/injection, schedule: Q01DX009 (ip), vehicle: saline with Tween-80
[5] = dose: 25.0 mg/kg/injection, schedule: Q01DX009 (ip), vehicle: water
[6] = dose: 50.0 mg/kg/injection, schedule: Q01DX009 (ip), vehicle: water
[7] = dose: 100.0 mg/kg/injection, schedule: Q04DX003 (ip), vehicle: saline with Tween-80
[8] = dose: 200.0 mg/kg/injection, schedule: Q04DX003 (ip), vehicle: saline with Tween-80
[9] = dose: 400.0 mg/kg/injection, schedule: Q04DX003 (ip), vehicle: saline with Tween-80
[10] = dose: 50.0 mg/kg/injection, schedule: Q01DX009 (ip), vehicle: saline
[11] = dose: 100.0 mg/kg/injection, schedule: Q01DX009 (ip), vehicle: saline
[12] = dose: 100.0 mg/kg/injection, schedule: Q04DX003 (ip), vehicle: other
[13] = dose: 200.0 mg/kg/injection, schedule: Q04DX003 (ip), vehicle: other
[14] = dose: 400.0 mg/kg/injection, schedule: Q04DX003 (ip), vehicle: other
[15] = dose: 50.0 mg/kg/injection, schedule: Q01DX009 (ip), vehicle: saline with Tween-80
[16] = dose: 100.0 mg/kg/injection, schedule: Q01DX001 (ip), vehicle: Klucel (hydroxypropylcellulose) (HPC)
[17] = dose: 12.5 mg/kg/injection, schedule: Q04DX003 (ip), vehicle: Klucel (hydroxypropylcellulose) (HPC)
[18] = dose: 25.0 mg/kg/injection, schedule: Q04DX003 (ip), vehicle: Klucel (hydroxypropylcellulose) (HPC)
[19] = dose: 50.0 mg/kg/injection, schedule: Q04DX003 (ip), vehicle: Klucel (hydroxypropylcellulose) (HPC)

Measured: T/C

CCCCC(CCC)(CCN)CCCC
inactive: dose: 1.0 mg/kg/injection, schedule: Q01DX009 (ip), vehicle: Klucel (hydroxypropylcellulose) (HPC) 100 % of control | dose: 2.0 mg/kg/injection, schedule: Q01DX009 (ip), vehicle: Klucel (hydroxypropylcellulose) (HPC) 110 % of control | dose: 4.0 mg/kg/injection, schedule: Q01DX009 (ip), vehicle: Klucel (hydroxypropylcellulose) (HPC) 105 % of control | dose: 8.0 mg/kg/injection, schedule: Q01DX009 (ip), vehicle: Klucel (hydroxypropylcellulose) (HPC) 115 % of control

CCOC(=O)CC(=O)c1ccc(C)cc1
inactive: [1] 90 % of control | [2] 90 % of control

Cc1ccc(NC(=O)Oc2ccc(Br)cc2Br)c([N+](=O)[O-])c1
inactive: [1] 122 % of control

O=Cc1c2ccc(Cl)cc2nc2ccc(Cl)cc12
inactive: dose: 100.0 mg/kg/injection, schedule: Q01DX001 (ip), vehicle: saline with Tween-80 100 % of control | dose: 200.0 mg/kg/injection, schedule: Q01DX001 (ip), vehicle: saline with Tween-80 100 % of control | dose: 400.0 mg/kg/injection, schedule: Q01DX001 (ip), vehicle: saline with Tween-80 100 % of control

O=C(Nc1ncc([N+](=O)[O-])s1)c1cccc([N+](=O)[O-])c1
inactive: dose: 6.25 mg/kg/injection, schedule: Q01DX009 (ip), vehicle: saline with Tween-80 99 % of control | [3] 94 % of control | [4] 93 % of control

COc1cc(C(=O)N2CC2)cc(OC)c1OC
inactive: dose: 3.12 mg/kg/injection, schedule: Q01DX009 (ip), vehicle: water 108 % of control | dose: 6.25 mg/kg/injection, schedule: Q01DX009 (ip), vehicle: water 90 % of control | dose: 12.5 mg/kg/injection, schedule: Q01DX009 (ip), vehicle: water 99 % of control | [5] 101 % of control | [6] 96 % of control

O=C1c2cc(Cl)ccc2-c2c(Cl)cc(Cl)cc21
inactive: [7] 91 % of control | [2] 87 % of control | [8] 100 % of control | [9] 91 % of control

Clc1ncnc2c1ncn2C1CCCCO1 (stereo not drawn)
inactive: dose: 25.0 mg/kg/injection, schedule: Q01DX009 (ip), vehicle: saline 90 % of control | [10] 100 % of control | dose: 100.0 mg/kg/injection, schedule: Q01DX009 (ip), vehicle: other 92 % of control | [11] 95 % of control | [12] 108 % of control | [13] 108 % of control | dose: 400.0 mg/kg/injection, schedule: Q01DX009 (ip), vehicle: other 115 % of control | [14] 108 % of control

Cc1nn(C2CC(O)C(O)C(CO)O2)c(=O)[nH]c1=O (stereo not drawn)
inactive: [10] 98 % of control | [11] 99 % of control | dose: 200.0 mg/kg/injection, schedule: Q01DX009 (ip), vehicle: saline 97 % of control | dose: 400.0 mg/kg/injection, schedule: Q01DX009 (ip), vehicle: saline 106 % of control

CN(C)c1ccc(N(C)C)c(C(O)(c2ccccc2)c2ccccc2)c1
inactive: [3] 95 % of control | [4] 93 % of control | [15] 95 % of control

Cc1nc2n(c1/C=N/NC(N)=S)CCS2
inactive: dose: 25.0 mg/kg/injection, schedule: Q01DX001 (ip), vehicle: Klucel (hydroxypropylcellulose) (HPC) 102 % of control | dose: 50.0 mg/kg/injection, schedule: Q01DX001 (ip), vehicle: Klucel (hydroxypropylcellulose) (HPC) 98 % of control | [16] 98 % of control

COC1=CC(=O)c2c(O)cc(OC)cc2C1=O
inactive: dose: 1.25 mg/kg/injection, schedule: Q01DX009 (ip), vehicle: saline with Tween-80 120 % of control | dose: 2.5 mg/kg/injection, schedule: Q01DX009 (ip), vehicle: saline with Tween-80 95 % of control

COC(=O)/C=C1\Sc2ccc(Cl)cc2NC1=O
inactive: [15] 93 % of control | [1] 86 % of control | [2] 93 % of control

COc1ccc(CN(CC(=O)O)S(C)(=O)=O)cc1
inactive: [12] 103 % of control | [13] 100 % of control | [14] 109 % of control

CCCCSc1nc(N)nc2c1ncn2CC(C)CC (stereo not drawn)
inactive: [7] 100 % of control | [8] 100 % of control | [9] 100 % of control

CCOC(=O)C1=C(Nc2ccccc2)CSC1
inactive: [5] 94 % of control | [6] 97 % of control | dose: 100.0 mg/kg/injection, schedule: Q01DX009 (ip), vehicle: water 102 % of control | dose: 200.0 mg/kg/injection, schedule: Q01DX009 (ip), vehicle: water 108 % of control | dose: 400.0 mg/kg/injection, schedule: Q01DX009 (ip), vehicle: water 91 % of control

COc1cc[n+]([O-])cc1
inactive: dose: 100.0 mg/kg/injection, schedule: Q04DX003 (ip), vehicle: saline 95 % of control | dose: 200.0 mg/kg/injection, schedule: Q04DX003 (ip), vehicle: saline 95 % of control | dose: 400.0 mg/kg/injection, schedule: Q04DX003 (ip), vehicle: saline 100 % of control

COc1ccc(C(=O)/C=C/c2ccc(OCc3ccccc3)cc2)c(OC)c1
inactive: [15] 103 % of control | [1] 94 % of control | [2] 90 % of control

NC1=Nc2cccc3cccc(c23)N1
inactive: [3] 92 % of control | [17] 109 % of control | [4] 100 % of control | [18] 100 % of control | [15] 100 % of control | [19] 109 % of control

O=C(Cc1ccccc1)OCC#CC#CCOC(=O)Cc1ccccc1
inactive: dose: 100.0 mg/kg/injection, schedule: Q01DX009 (ip), vehicle: Klucel (hydroxypropylcellulose) (HPC) 100 % of control | dose: 100.0 mg/kg/injection, schedule: Q04DX003 (ip), vehicle: Klucel (hydroxypropylcellulose) (HPC) 90 % of control | dose: 200.0 mg/kg/injection, schedule: Q01DX009 (ip), vehicle: Klucel (hydroxypropylcellulose) (HPC) 104 % of control | dose: 200.0 mg/kg/injection, schedule: Q04DX003 (ip), vehicle: Klucel (hydroxypropylcellulose) (HPC) 104 % of control | dose: 400.0 mg/kg/injection, schedule: Q01DX009 (ip), vehicle: Klucel (hydroxypropylcellulose) (HPC) 100 % of control | dose: 400.0 mg/kg/injection, schedule: Q04DX003 (ip), vehicle: Klucel (hydroxypropylcellulose) (HPC) 109 % of control

OCCN1CCN(CC/C=C2/c3ccccc3Sc3ccc(C(F)(F)F)cc32)CC1
inactive: dose: 5.0 mg/kg/injection, schedule: Q01DX009 (ip), vehicle: saline 101 % of control | dose: 10.0 mg/kg/injection, schedule: Q01DX009 (ip), vehicle: saline 101 % of control | dose: 80.0 mg/kg/injection, schedule: Q04DX003 (ip), vehicle: saline 97 % of control

N\C([S-])=N/N=C\C(=N/N=C(\N)[S-])C(O)C(O)C(O)CO.[Rh+2] (stereo not drawn)
inactive: [16] 100 % of control | dose: 200.0 mg/kg/injection, schedule: Q01DX001 (ip), vehicle: Klucel (hydroxypropylcellulose) (HPC) 104 % of control | dose: 400.0 mg/kg/injection, schedule: Q01DX001 (ip), vehicle: Klucel (hydroxypropylcellulose) (HPC) 109 % of control

CCC(=O)NC(N)=S
inactive: [17] 100 % of control | [18] 100 % of control | [19] 100 % of control
